Source: patent US8796328B2, “TRPV1 antagonists” (AbbVie Inc., priority 2012, dated 2014)

Tests used:
Format in all cases: in vivo
rats [1] = assay: Rat tail immersion assay (noxious thermosensation, 55° C. water bath)
Procedure: Compounds were tested for their effects on noxious thermosensation using the tail immersion assay. Testing was performed one hour following oral administration of 100 μmol/kg of the compound in 10% ethanol/20% Tween-80/70% PEG-400 (2 mL/kg). Mophine (6 mg/kg) was administered interperitoneally (i.p.) using saline (2 mL/kg) as the vehicle. For testing, a circulating water bath was heated to 55° C. Thirty to sixty minutes post dosing, the rats were handled for a few seconds to calm them down and then cupped with their back against the testers hand at a slight angle with head facing away from tester. With rat in one hand and a 0.01 second stopwatch in the other hand, the tail was quickly immersed 6-8 cm in water bath or to a distance leaving 2-3 cm of tail out of water. The timer was started simultaneously. When the rat flinched or attempted withdrawal, timer was immediately stopped and the rat's tail was quickly removed from water bath. This response latency (in seconds) was recorded. Process was repeated 3 times with 3-4 minutes between readings for a final average.
For a given example, a percent increase in the average response latency (in seconds) for tail withdrawal relative to a vehicle control was determined % increase=[(tc−tv)/tv]×100%
tc=response time (in seconds) with oral dosing of compounds
tv=response time (in seconds) with oral dosing of vehicle
The % increases in tail withdrawal latency relative to vehicle control are divided into the following categories: […]

rats [2] = assay: Sodium iodoacetate-induced knee joint osteoarthritic pain model (hind limb grip force); conditions: rat, 30 mg/kg single acute oral dose, assessed 1 hour following administration, 20 days after iodoacetate
Procedure: Unilateral knee joint osteoarthritis was induced in the rats by a single intra-articular (i.a.) injection of sodium iodoacetate (3 mg in 0.05 mL sterile isotonic saline) into the right knee joint cavity under light isoflurane anesthesia using a 26G needle. […] Pain behavioral assessment of hind limb grip force was conducted by recording the maximum compressive force exerted on the hind limb strain gauge setup, in a commercially available grip force measurement system (Columbus Instruments, Columbus, Ohio). The grip force data was converted to a maximum hindlimb cumulative compressive force (CFmax) (gram force)/kg body weight for each animal. The analgesic effects of test compounds were determined 20 days following the i.a. injection of sodium iodoacetate. The vehicle control group for each compound being tested was assigned 0% whereas the age matched naïve group was assigned as being 100% (normal). The % effect for each dose group was then expressed as % return to normalcy compared to the naïve group. Test compounds were administered orally in 10% ethanol/20% Tween 80/70% polyethylene glycol-400 vehicle at a volume of 2 mL/kg. The assessment of the analgesic effects of test compounds was made 1 hour following oral administration. […]

rats [3] = assay: Rat acute capsaicin-induced flinching behavior; conditions: single acute oral dose 100 μmol/kg, capsaicin 2.5 μg one hour after dosing, five minute observation
Procedure: Rats were placed in individual observation cages. Following an acclimation period of 30 minutes, selected compounds were administered orally at a dose of 100 μmol/kg orally in a vehicle (10% ethanol/20% Tween 80/70% polyethylene glycol-400) at a volume of 2 mL/kg. One hour after administration of the compound, 2.5 μg of capsaicin in a 10 μL solution of 10% ethanol/90% hydroxypropyl-β-cyclodextrin was injected subcutaneously into the dorsal aspect of the right hind paw. The observation cage was then suspended above mirrors in order to facilitate observation. […] The number of flinching behaviors of the injured paw was recorded during the five minute observation period (Gilchrist, H. D.; Allard, B. L.; Simone, D. A.; Enhanced withdrawal responses to heat and mechanical stimuli following intraplantar injection of capsaicin in rats. Pain, 1996, 67, 179-188). A single acute oral dose of Example 10 as described above produced a 56% reduction in flinching behavior relative to vehicle-treated animals.

SMILES: CS(=O)(=O)Nc1ccc(CNC(=O)N[C@@H]2CC(CF)(CF)Oc3cc(C(F)(F)F)ccc32)cc1F [Example 10, N-{4-[({[(4R)-2,2-bis(fluoromethyl)-7-(trifluoromethyl)-3,4-dihydro-2H-chromen-4-yl]carbamoyl}amino)methyl]-2-fluorophenyl}methanesulfonamide]
- % Increase in Tail Withdrawal Latency (rats [1]; rat, oral 100 μmol/kg, one hour post dosing, relative to vehicle): −
- increase in tail withdrawal latency relative to vehicle-treated animals (rats [1]; rats, after oral administration): < 10%
- % effect (% return to normalcy) in iodoacetate-induced osteoarthritic pain model (rats [2]): 62%
- reduction in flinching behavior relative to vehicle-treated animals (rats [3]): 56%
